We go through 3 compounds from publication PMC5513743 (Journal of medical virology, 2017).

Read-outs that look alike come from different tables or passages of the source.

One series deals with patient derived HCV. Description: microbe, parasite or virus in culture. It counts as cell-based, hepatitis C virus. As to conditions: for IC50: Hepatitis C virus, in Homo sapiens.
The subject of series [1] is HCV replicon H/FL-Neo (genotype 1a (H77), full length construct). As to conditions: HCV genotype 1A replicon. (In antiviral work, replicon cells carry a viral genome segment that copies itself.)
The test system of series [2] is HCV replicon cell line AVA5 (sub-genomic (CON1), genotype 1b).
The next series relates to replicon cell line AVA5. As to conditions: Table 2; SB 9200 monotherapy.
Series [3] has as its system fused THP-1/Huh7 derivative cells. As to conditions: capture fusion assay, data not shown.
In a further series the test system is HCV. As to conditions: SAD and MAD seven-day Phase I study, chronic HCV patients; ref Thompson AJ, 2015; cited from earlier work.
A short description of series [4]: in vitro.
Series [5] in a line: in vitro. As to conditions: human.
For series [6], the system named is HCV replicon cell line AVA5 (sub-genomic (CON1), genotype 1b). Nature of the series: microbe, parasite or virus in culture. As to conditions: Hepatitis C virus, GETYPE1B, Ava5, read-out: EC50 (μM) (individual agent).

What is called IC50 is the concentration that gives 50% inhibition. High values mean lower potency, low ones higher potency. `CO[C@@H]1[C@H](OP(=O)(OC[C@H]2O[C@@H](n3cnc4c(N)ncnc43)C[C@@H]2O)SCOC(=O)OC(C)C)[C@@H](CO)O[C@H]1n1ccc(=O)[nH]c1=O` (stereo partly shown) [SB 9200]: the “inhibition of HCV replication” value with patient derived HCV (Genotypes 1,2,3,4, and 6 patient derived HCV) is listed as “inhibited replication of all the genotypes tested in a dose-dependent manner”. The IC50 turned out to be 220 ± 76 nM in the series with patient derived HCV (G1 strains, patient derived HCV) and 35 ± 13 nM in the series with patient derived HCV (G3 isolates, patient derived HCV). Also, in the series with patient derived HCV (g3 patient who failed SOF/DAC/RBV, NS5A RAS S62L and Y93H enriched), the “difference in activity (IC50) against pre- and post treatment quasi-species” value was “No significant difference”. The “antiviral activity (fold change in HCV RNA from non-treated controls)” value with patient derived HCV (single dose 0.1μM, G3 SVR and NR samples after DAA treatment) was “demonstrated antiviral activity”. Also, the “S.I. (CC50/EC50)” value in [1] is above 45; in series [2] (HCV genotype 1B replicon), above 100; in [2] (Table 2, SB 9200 monotherapy), above 100. The CC50 in the series on replicon cell line AVA5, in “in vitro [4]” and in the series “in vitro [5]” was above 100000 nM in each case. The Cell viability entry in [3] was “not affected”. In the series with HCV, the safety and tolerability result is given as “safe, well tolerated”.
One may read the EC50 as the concentration that produces a half-maximal response. As to `NC(=O)c1ncn([C@@H]2O[C@H](CO)[C@@H](O)[C@H]2O)n1` [Ribavirin], the EC50 in [6] was above 30 µM.
With `C/C=C/C[C@@H](C)[C@@H](O)[C@H]1C(=O)N[C@@H](CC)C(=O)N(C)[C@H](C)C(=O)N(CC)[C@@H](C(C)C)C(=O)N[C@@H](C(C)C)C(=O)N(C)[C@@H](CC(C)C)C(=O)N[C@@H](C)C(=O)N[C@H](C)C(=O)N(C)[C@@H](CC(C)C)C(=O)N(C)[C@@H](CC(C)C)C(=O)N(C)[C@@H](C(C)C)C(=O)N1C` [alisporivir, reference compound], the IC50 in the series with patient derived HCV (G1 patient derived samples) is 99 nM; with patient derived HCV (G3 patient derived samples) it was 36 nM.
